In US20050049299A1, “Selective inhibitors of stat-3 activation and uses thereof” (priority 2003, published 2005):

Assays:
Assay type in all cases: cell-based, human
[1] = test system: STAT5 phosphorylation; assay: Constitutive STAT5 phosphorylation in U266 cells (Western blot); settings: 50 μM, conditions of complete STAT3 phosphorylation inhibition
Description: (§1) U266 cells (2×10^6) were treated with the indicated concentrations of curcumin for 1 h, or treated with 50 μM curcumin for the indicated durations and levels of phosphorylated-STAT3 (upper panel) and STAT3 (lower panel) were examined in whole cell extracts by Western Blotting. […] U266 cells (2×10^6) were treated with 50 μM curcumin for indicated durations, and examined for phosphorylated and nonphosphorylated-STAT3, and STAT5. […] U266 cells (2×10^6) were preincubated with curcumin (50 μM) for indicated durations before treatment with IFN-α (10 ng/ml) for additional 30 min and then examined for phosphorylated and nonphosphorylated-STAT1.
(§2) For detection of STAT proteins, whole-cell extracts were prepared by lysing the curcumin-treated cells in lysis buffer (20 mM Tris, pH 7.4, 250 mM NaCl, 2 mM EDTA, pH 8.0, 0.1% Triton-X100, 0.01 mg/ml aprotinin, 0.005 mg/ml leupeptin, 0.4 mM PMSF, and 4 mM NaVO4). Lysates were then spun at 14000 rpm for 10 min to remove insoluble material, and resolved on a 7.5% gel. After electrophoresis, the proteins were electrotransferred to a nitrocellulose membrane, blocked with 5% nonfat milk, and probed with anti-STAT antibodies (1:1000) overnight at 4° C. The blot was washed, exposed to HRP-conjugated secondary antibodies for 1 h, and finally examined by chemiluminescence (ECL, Amersham Pharmacia Biotech. Arlington Heights, Ill.). […]

[2] = test system: STAT1 phosphorylation; assay: IFN-α-inducible STAT1 phosphorylation in U266 cells (Western blot); settings: 50 μM curcumin, IFN-α 10 ng/ml
Description: as §1, §2

[3] = test system: MM.1S and MM.1R cells; assay: Cell growth of dexamethasone-sensitive and dexamethasone-resistant MM cells (MTT); settings: curcumin 10 μM, 3 days
Description: MM.1S and MM.1R cells were cultured with dexamethasone (1 μM) in the absence or presence of curcumin (10 μM) for 3 days and cell viability was checked by the MTT method. Results are shown as mean (±s.d. indicated by error bar) of percent cell growth of triplicate cultures compared to the untreated control.
The antiproliferative effects of curcumin against different multiple myeloma cell lines were determined by the MTT dye uptake method as described earlier (28). Briefly, the cells (5000/well) were incubated in triplicate in a 96-well plate in the presence or absence of indicated test samples in a final volume of 0.1 ml for 24 h at 37° C. Thereafter, 0.025 ml of MTT solution (5 mg/ml in PBS) was added to each well. After a 2-h incubation at 37° C., 0.1 ml of the extraction buffer (20% SDS, 50% dimethylformamide) was added and the extract incubated overnight at 37° C. for solubilization of formazan crystals. The OD at 570 nm was measured using a 96-well multiscanner autoreader (Dynatech MR 5000), with the extraction buffer serving as blank. Percent cell viability cell viability was calculated using the following formula: Percent cell viability=(OD of the experiment samples/OD of the control)×100.
Multiple myeloma treated with dex gradually develops resistance to this drug.

[4] = test system: STAT3 nuclear translocation; assay: STAT3 distribution in HNSCC cells (immunocytochemistry, Alexa fluorochrome); settings: MDA 1986LN, MDA 686LN and JMAR cells, 50 μM, 2 hrs
Description: MDA 1986LN, MDA 686LN and JMAR cells were incubated with either media alone or with curcumin (50 μM) for 2 hrs and then analyzed by immunocytochemistry using Alexa fluorochrome for the distribution of STAT3 (original magnification ×200). […] The same procedure as mentioned above was performed on the same cells and the p-STAT3 analyzed by immunocytochemistry using horse radish peroxidase stain (original magnification ×200).
Since STAT3 retained in the cytoplasm under resting conditions and in the non-phosphorylated state translocates to nucleus when phosphorylated, the effect of curcumin on the distribution of STAT3 was examined. To accomplish this, curcumin-treated and untreated MDA 1986LN, MDA 686LN and JMAR cells were analyzed for distribution of STAT3 by immunocytochemistry using ALEXA fluorochrome.

[5] = test system: STAT3 phosphorylation; assay: IL-6-induced STAT3 phosphorylation in JMAR cells (Western blot)
Description: JMAR cells (2×10^6 cells) were treated with IL-6 (10 ng/ml) for the indicated time and whole cell extracts were prepared. These extracts (30 μg) were resolved on 7.5% SDS-PAGE, electrotransferred to a nitrocellulose membrane and probed for p-STAT3 (upper panel) and stripped and re-probed for STAT3 (lower panel). […] JMAR cells were pretreated with curcumin (50 μM) for indicated durations and stimulated with IL-6 (10 ng/ml) for 10 mins and whole cell extract prepared and probed as mentioned earlier.
JMAR cells were treated with IL-6 for different durations and the levels of p-STAT3 and STAT3 were examined. Treatment with IL-6 as early as 5 mins induced STAT3 phosphorylation in JMAR cells (FIG. 14A, upper panel). However, STAT3 levels were unaffected (FIG. 14A, lower panel).
Further, since IL-6 induced STAT3 phosphorylation in JMAR cells, the ability of curcumin to inhibit this STAT3 phosphorylation was also examined. JMAR cells were pretreated with curcumin for different durations and stimulated with IL-6 for 10 minutes. Both the status of p-STAT3 and STAT3 were determined in the whole cell extracts of these cells. Treatment with curcumin for as early as 30 minutes led to decline in the phosphorylation of STAT3 which declined further with increased exposure to curcumin. Exposure to curcumin for 2 hours inhibited STAT3 phosphorylation in JMAR cells (FIG. 14B, upper panel). The STAT3 levels were unaffected by this treatment (FIG. 14B, lower panel).

[6] = 50 μM curcumin, IL-6 10 ng/ml 10 min

Compound: COc1cc(/C=C/C(=O)CC(=O)/C=C/c2ccc(O)c(OC)c2)ccc1O [curcumin, diferuloylmethane]
- levels of constitutively phosphorylated STAT5 [1]: neither altered the levels of constitutively phosphorylated STAT5
- IFN-α-induced STAT1 phosphorylation [2]: suppressed the phosphorylation in a time-dependent manner
- proliferation of dex-resistant and dex-sensitive multiple myeloma cells [3]: inhibited the proliferation of dex-resistant and dex-sensitive multiple myeloma cells similarly
- translocation of STAT3 to the nucleus [4]: prevented the translocation of STAT3 to the nucleus
- earliest treatment time leading to decline of IL-6-induced STAT3 phosphorylation [5, 6]: 30 min
- exposure that inhibited IL-6-induced STAT3 phosphorylation [5, 6]: 2 h
- STAT3 levels ([5]; curcumin pretreatment plus IL-6): unaffected
